# Test results taken from publication PMC7872314, “Modeling Bioavailable Concentrations in Zebrafish Cell Lines and Embryos Increases the Correlation of Toxicity Potencies across Test Systems” (Environmental Science & Technology, 2020).
# Read-outs that look alike come from different tables or passages of the source.
# Key:
# [1] = system: ZF4 (fibroblasts) cell line; test: Neutral red, fluorescence (NRf), AB/CFDA/NR multiplex, lysosome stability; format: cell-based, zebrafish (Danio rerio); settings: Danio rerio, Fibroblast
# [2] = system: ZFL (hepatocytes) cell line; test: cells; format: cell-based, zebrafish (Danio rerio); settings: Danio rerio, Hepatocyte
# [3] = system: ZF4 (fibroblasts) cell line; test: alamarBlue (AB) endpoint of AB/CFDA/NR multiplex, cellular respiration; format: cell-based, zebrafish (Danio rerio); settings: Danio rerio, Fibroblast
# [4] = system: ZF4 (fibroblasts) cell line; test: Neutral red, absorbance (NRa), AB/CFDA/NR multiplex, lysosome stability; format: cell-based, zebrafish (Danio rerio); settings: Danio rerio, Fibroblast
# [5] = system: ZF4 (fibroblasts) cell line; test: MTS assay (MTS/BCA multiplex), NAD(P)H metabolism; format: cell-based, zebrafish (Danio rerio); settings: Danio rerio, Fibroblast
# [6] = system: ZFL (hepatocytes) cell line; test: cells; format: cell-based, zebrafish (Danio rerio); settings: Danio rerio, Hepatocyte; remark: listed apart in the source
# [7] = system: ZFL (hepatocytes) cell line; test: cells; format: cell-based, zebrafish (Danio rerio); settings: Danio rerio, Hepatocyte; remark: listed apart in the source
# [8] = system: ZF4 (fibroblasts) cell line; test: ATP assay (ATP/LDH multiplex), ATP metabolism; format: cell-based, zebrafish (Danio rerio); settings: Danio rerio, Fibroblast
# [9] = ref Comptox, PubChem or DrugBank; cited from earlier work
# zebrafish embryos [10] = system: zebrafish embryos; set-up: method as in earlier work; settings: nominal, cited from earlier work
# zebrafish embryos [11] = test: animal or person; format: in vivo, zebrafish (Danio rerio)
# [12] = system: ZF4 (fibroblasts) cell line; test: BCA assay (MTS/BCA multiplex), protein amount; format: cell-based, zebrafish (Danio rerio); settings: Danio rerio, Fibroblast
# [13] = system: ZF4 (fibroblasts) cell line; test: CFDA endpoint of AB/CFDA/NR multiplex, membrane stability; format: cell-based, zebrafish (Danio rerio); settings: Danio rerio, Fibroblast
# [14] = system: ZFL (hepatocytes) cell line; test: cells; format: cell-based, zebrafish (Danio rerio); settings: Danio rerio, Hepatocyte; remark: listed apart in the source
# [15] = system: ZFL (hepatocytes) cell line; test: cells; format: cell-based, zebrafish (Danio rerio); settings: Danio rerio, Hepatocyte; remark: listed apart in the source
# ZF4 and ZFL cell lines = test: Cytotoxicity assays, all endpoints, both cell lines (mean/range); format: cell-based, zebrafish (Danio rerio); settings: 48 h
# [16] = system: ZFL (hepatocytes) cell line; test: cells; format: cell-based, zebrafish (Danio rerio); settings: Danio rerio, Hepatocyte; remark: listed apart in the source
# [17] = system: ZFL (hepatocytes) cell line; test: cells; format: cell-based, zebrafish (Danio rerio); settings: Danio rerio, Hepatocyte; remark: listed apart in the source
compound,measurement,setting,value
"CCC(C)C1OC2(CCC1C)CC1CC(CC=C(C)C(OC3CC(OC)C(OC4CC(OC)C(O)C(C)O4)C(C)O3)C(C)C=CC=C3COC4C(O)C(C)=CC(C(=O)O1)C34O)O2 (stereo not drawn) [Ivermectin, ivermectin]",IC50,"[1]; NR-fluo - ZF4, log10 of IC50, read-out: LogIC50 (converted)",18.1 µM
same,IC50,"[1]; NR-fluo - ZF4, read-out: IC50",18.1 µM
same,IC50,"[1]; ZF4, 48 h exposure, nominal, log10, read-out: logIC50 (log10 IC50;nom) NRf (converted)",18.2 µM
same,IC50,"[1]; ZF4, 48 h exposure, nominal, read-out: IC50;nom NRf",18.1 µM
same,IC50,"[2]; CFDA - ZFL, log10 of IC50, read-out: LogIC50 (converted)",14.1 µM
same,IC50,"[2]; CFDA - ZFL, read-out: IC50",14.1 µM
same,IC50,"[2]; ZFL, 48 h exposure, nominal, log10, read-out: logIC50 (log10 IC50;nom) CFDA (converted)",14.1 µM
same,IC50,"[2]; ZFL, 48 h exposure, nominal, read-out: IC50;nom CFDA",14.1 µM
same,IC50,"[3]; AB - ZF4, log10 of IC50, read-out: LogIC50 (converted)",10.2 µM
same,IC50,"[3]; AB - ZF4, read-out: IC50",10.2 µM
same,IC50,"[3]; ZF4, 48 h exposure, nominal, log10, read-out: logIC50 (log10 IC50;nom) AB (converted)",10.2 µM
same,IC50,"[3]; ZF4, 48 h exposure, nominal, read-out: IC50;nom AB",10.2 µM
same,IC50,"[4]; NR-abs - ZF4, log10 of IC50, read-out: LogIC50 (converted)",15.4 µM
same,IC50,"[4]; NR-abs - ZF4, read-out: IC50",15.4 µM
same,IC50,"[4]; ZF4, 48 h exposure, nominal, log10, read-out: logIC50 (log10 IC50;nom) NRa (converted)",15.5 µM
same,IC50,"[4]; ZF4, 48 h exposure, nominal, read-out: IC50;nom NRa",15.4 µM
same,IC50,"[5]; MTS - ZF4, log10 of IC50, read-out: LogIC50 (converted)",13.6 µM
same,IC50,"[5]; MTS - ZF4, read-out: IC50",13.6 µM
same,IC50,"[5]; ZF4, 48 h exposure, nominal, log10, read-out: logIC50 (log10 IC50;nom) MTS (converted)",13.5 µM
same,IC50,"[5]; ZF4, 48 h exposure, nominal, read-out: IC50;nom MTS",13.6 µM
same,IC50,"[6]; ATP - ZFL, log10 of IC50, read-out: LogIC50 (converted)",2.61 µM
same,IC50,"[6]; ATP - ZFL, read-out: IC50",2.61 µM
same,IC50,"[6]; ZFL, 48 h exposure, nominal, log10, read-out: logIC50 (log10 IC50;nom) ATP (converted)",2.63 µM
same,IC50,"[6]; ZFL, 48 h exposure, nominal, read-out: IC50;nom ATP",2.61 µM
same,IC50,"[7]; AB - ZFL, log10 of IC50, read-out: LogIC50 (converted)",6.58 µM
same,IC50,"[7]; AB - ZFL, read-out: IC50",6.58 µM
same,IC50,"[7]; ZFL, 48 h exposure, nominal, log10, read-out: logIC50 (log10 IC50;nom) AB (converted)",6.61 µM
same,IC50,"[7]; ZFL, 48 h exposure, nominal, read-out: IC50;nom AB",6.58 µM
same,IC50,"[8]; ATP - ZF4, log10 of IC50, read-out: LogIC50 (converted)",15.4 µM
same,IC50,"[8]; ATP - ZF4, read-out: IC50",15.4 µM
same,IC50,"[8]; ZF4, 48 h exposure, nominal, log10, read-out: logIC50 (log10 IC50;nom) ATP (converted)",15.5 µM
same,IC50,"[8]; ZF4, 48 h exposure, nominal, read-out: IC50;nom ATP",15.4 µM
same,Physiological charge,[9],0
same,Water Solubility,[9],insoluble
same,logKow,[9],5.83
same,pKa (Strongest Acidic),[9],12.47
same,pKa (Strongest Basic),[9],-3.4
same,EC50,"zebrafish embryos [10]; 144 hpf, converted, listed as Ive",0.503 µM
same,logEC50 144 hpf,zebrafish embryos [10]; log10,-6.299 M
same,difference in toxicity (EC50;nom) between 48 hpf and 144 hpf,zebrafish embryos [11]; 48 hpf time point less sensitive than 144 hpf,marginally more toxic
same,log EC50;nom (mFET),"zebrafish embryos [11]; 48 hpf, nominal, log10, listed as Ive",-5.766 M
same,EC50,"zebrafish embryos [11]; Danio rerio, 48 hpf, nominal, log10, read-out: log EC50;nom (mFET) (converted)",1.7 µM
same,EC50,"zebrafish embryos [11]; Danio rerio, 48 hpf, nominal, read-out: EC50;nom (embryo)",1.5 µg/mL
same,EC50,"zebrafish embryos [11]; Danio rerio, read-out: EC50 48hpf",1.71 µM
same,EC50,"zebrafish embryos [11]; Danio rerio, read-out: EC50;nom (mFET)",1.71 µM
same,EC50,"zebrafish embryos [11]; zebrafish, in vivo, listed as Ive, read-out: EC50;nom (mFET)",1.71 µM
same,IC50,"[12]; BCA - ZF4, log10 of IC50, read-out: LogIC50 (converted)",16.2 µM
same,IC50,"[12]; BCA - ZF4, read-out: IC50",16.2 µM
same,IC50,"[12]; ZF4, 48 h exposure, nominal, log10, read-out: logIC50 (log10 IC50;nom) BCA (converted)",16.2 µM
same,IC50,"[12]; ZF4, 48 h exposure, nominal, read-out: IC50;nom BCA",16.2 µM
same,IC50,"[13]; CFDA - ZF4, log10 of IC50, read-out: LogIC50 (converted)",18.2 µM
same,IC50,"[13]; CFDA - ZF4, read-out: IC50",18.2 µM
same,IC50,"[13]; ZF4, 48 h exposure, nominal, log10, read-out: logIC50 (log10 IC50;nom) CFDA (converted)",18.2 µM
same,IC50,"[13]; ZF4, 48 h exposure, nominal, read-out: IC50;nom CFDA",18.2 µM
same,IC50,"[14]; BCA - ZFL, log10 of IC50, read-out: LogIC50 (converted)",7.08 µM
same,IC50,"[14]; BCA - ZFL, read-out: IC50",7.08 µM
same,IC50,"[14]; ZFL, 48 h exposure, nominal, log10, read-out: logIC50 (log10 IC50;nom) BCA (converted)",7.08 µM
same,IC50,"[14]; ZFL, 48 h exposure, nominal, read-out: IC50;nom BCA",7.08 µM
same,IC50,"[15]; MTS - ZFL, log10 of IC50, read-out: LogIC50 (converted)",10.2 µM
same,IC50,"[15]; MTS - ZFL, read-out: IC50",10.2 µM
same,IC50,"[15]; ZFL, 48 h exposure, nominal, log10, read-out: logIC50 (log10 IC50;nom) MTS (converted)",10.2 µM
same,IC50,"[15]; ZFL, 48 h exposure, nominal, read-out: IC50;nom MTS",10.2 µM
same,IC50,"ZF4 and ZFL cell lines; Danio rerio, read-out: Mean log IC50nom, mean of all cytotoxicity endpoints (without LDH) in ZF4 and ZFL, 48 h, log10 (converted)",9.12 µM
same,Mean log IC50nom,"ZF4 and ZFL cell lines; mean of all cytotoxicity endpoints (without LDH) in ZF4 and ZFL, log10, listed as Ive",-5.042 M
same,IC50,"[16]; NR-fluo - ZFL, log10 of IC50, read-out: LogIC50 (converted)",3.34 µM
same,IC50,"[16]; NR-fluo - ZFL, read-out: IC50",3.34 µM
same,IC50,"[16]; ZFL, 48 h exposure, nominal, log10, read-out: logIC50 (log10 IC50;nom) NRf (converted)",3.31 µM
same,IC50,"[16]; ZFL, 48 h exposure, nominal, read-out: IC50;nom NRf",3.34 µM
same,IC50,"[17]; NR-abs - ZFL, log10 of IC50, read-out: LogIC50 (converted)",2.55 µM
same,IC50,"[17]; NR-abs - ZFL, read-out: IC50",2.55 µM
same,IC50,"[17]; ZFL, 48 h exposure, nominal, log10, read-out: logIC50 (log10 IC50;nom) NRa (converted)",2.57 µM
same,IC50,"[17]; ZFL, 48 h exposure, nominal, read-out: IC50;nom NRa",2.55 µM
